# Measured values taken from patent US12662489B2 (Sitryx Therapeutics Limited, priority 2023, dated 2026).
# Key:
# [1] = biological target: T1, MTHFD2 recombinant human enzyme (Homo sapiens, UniProt P13995); assay: MTHFD2 inhibition assay (NAD(P)H-Glo luminescence); conditions: for MTHFD1/MTHFD2 IC50 ratio: selectivity of MTHFD2 inhibition over MTHFD1, band
# T1 sequence (P13995 36-350): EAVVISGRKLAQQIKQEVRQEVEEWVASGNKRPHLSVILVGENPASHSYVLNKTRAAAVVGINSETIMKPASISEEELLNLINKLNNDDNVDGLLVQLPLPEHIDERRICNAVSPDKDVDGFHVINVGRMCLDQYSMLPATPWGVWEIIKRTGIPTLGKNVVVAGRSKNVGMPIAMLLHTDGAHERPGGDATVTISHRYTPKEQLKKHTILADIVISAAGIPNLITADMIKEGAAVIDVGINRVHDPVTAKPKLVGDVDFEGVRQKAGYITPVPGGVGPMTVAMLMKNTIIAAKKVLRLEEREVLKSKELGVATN
# [2] = biological target: T2, MTHFD1 recombinant human enzyme (Homo sapiens, UniProt P11586); assay: MTHFD1 inhibition assay (NAD(P)H-Glo luminescence); conditions: MTHFD1 IC50, recombinant human enzyme 200 nM, NADP, band
# T2 sequence (P11586 2-291 limits assumed): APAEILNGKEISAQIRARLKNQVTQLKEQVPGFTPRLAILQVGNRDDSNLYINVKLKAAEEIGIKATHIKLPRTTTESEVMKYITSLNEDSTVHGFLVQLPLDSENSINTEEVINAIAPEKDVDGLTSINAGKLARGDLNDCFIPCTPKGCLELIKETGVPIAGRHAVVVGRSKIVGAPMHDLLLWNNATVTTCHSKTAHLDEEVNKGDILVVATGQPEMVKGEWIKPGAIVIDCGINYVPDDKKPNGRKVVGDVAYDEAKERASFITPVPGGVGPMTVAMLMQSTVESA
Compound,IC50 [1] [µM],MTHFD1/MTHFD2 IC50 ratio [1],IC50 [2] [µM]
"COC[C@H]1CN(c2ccc3c4c(c(=O)oc3c2)CN(C(=O)c2cc(N(C)C)c(C(=O)NS(=O)(=O)N3C5CCC3CC5)cc2F)CC4)CCN1C [Example 191, (R)-N-((7-azabicyclo[2.2.1]heptan-7-yl)sulfonyl)-2-(dimethylamino)-5-fluoro-4-(8-(3-(methoxymethyl)-4-methylpiperazin-1-yl)-5-oxo-1,3,4,5-tetrahydro-2H-chromeno[3,4-c]pyridine-3-carbonyl)benzamide]",0.1 to 1,G (^ 3 to 9.0),> 5
"COC[C@H]1CN(c2cc(C)c3c4c(c(=O)oc3c2C)CN(C(=O)c2ccc(C(=O)NS(=O)(=O)N3CCCC3)c(O[C@H]3C[C@@H]5C[C@@H]5C3)c2F)CC4)CCN1C [Example 66, 2-(((1R,3s,5S)-bicyclo[3.1.0]hexan-3-yl)oxy)-3-fluoro-4-(8-((R)-3-(methoxymethyl)-4-methylpiperazin-1-yl)-7,10-dimethyl-5-oxo-1,3,4,5-tetrahydro-2H-chromeno[3,4-c]pyridine-3-carbonyl)-N-(pyrrolidin-1-ylsulfonyl)benzamide]",0.001 to 0.01,F (<3),0.001 to 0.01
"COC[C@H]1CN(c2cc(C)c3c4c(c(=O)oc3c2C)CN(C(=O)c2cc(OC3CCCC3)c(C(=O)NS(=O)(=O)N(C)C)c(C(F)(F)F)c2)CC4)CCN1C [Example 153, (R)-2-(cyclopentyloxy)-N-(N,N-dimethylsulfamoyl)-4-(8-(3-(methoxymethyl)-4-methylpiperazin-1-yl)-7,10-dimethyl-5-oxo-1,3,4,5-tetrahydro-2H-chromeno[3,4-c]pyridine-3-carbonyl)-6-(trifluoromethyl)benzamide]",0.01 to 0.1,H (>9.0 to 30),1 to 5
"COC[C@H]1CN(c2cc(C)c3c4c(c(=O)oc3c2C)CN(C(=O)c2cc(C(=O)NS(=O)(=O)N3CCCC3)c(OC3CCC3)cc2F)CC4)CCN1C [Example 165, (R)-2-cyclobutoxy-4-fluoro-5-(8-(3-(methoxymethyl)-4-methylpiperazin-1-yl)-7,10-dimethyl-5-oxo-1,3,4,5-tetrahydro-2H-chromeno[3,4-c]pyridine-3-carbonyl)-N-(pyrrolidin-1-ylsulfonyl)benzamide]",0.1 to 1,H (>9.0 to 30),> 5
"COC[C@H]1CN(c2ccc3c4c(c(=O)oc3c2C)CN(C(=O)c2ccc(C(=O)NS(=O)(=O)N3CCCC3)c(OC3CCC3)c2F)CC4)CCN1C(C)C [Example 170, (R)-2-cyclobutoxy-3-fluoro-4-(8-(4-isopropyl-3-(methoxymethyl)piperazin-1-yl)-7-methyl-5-oxo-1,3,4,5-tetrahydro-2H-chromeno[3,4-c]pyridine-3-carbonyl)-N-(pyrrolidin-1-ylsulfonyl)benzamide]",0.01 to 0.1,G (^ 3 to 9.0),0.1 to 1
"COC[C@H]1CN(c2ccc3c4c(c(=O)oc3c2C)CN(C(=O)c2ccc(C(=O)NS(=O)(=O)N3CCCC3)c(OC3CCC3)c2F)CC4)CCN1C1CC1 [Example 173, (R)-2-cyclobutoxy-4-(8-(4-cyclopropyl-3-(methoxymethyl)piperazin-1-yl)-7-methyl-5-oxo-1,3,4,5-tetrahydro-2H-chromeno[3,4-c]pyridine-3-carbonyl)-3-fluoro-N-(pyrrolidin-1-ylsulfonyl)benzamide]",1 to 5,F (<3),1 to 5
"Cc1c(N2CCN3CCOC[C@H]3C2)cc(C)c2c3c(c(=O)oc12)CN(C(=O)c1ccc(C(=O)NS(=O)(=O)N2CCCC2)c(OC2CCC2)c1)CC3 [Example 21, (R)-2-cyclobutoxy-4-(8-(hexahydropyrazino[2,1-c][1,4]oxazin-8(1 H)-yl)-7,10-dimethyl-5-oxo-1,3,4,5-tetrahydro-2H-chromeno[3,4-c]pyridine-3-carbonyl)-N-(pyrrolidin-1-ylsulfonyl)benzamide]",0.1 to 1,F (<3),0.1 to 1
